Assay results from USRE47193E1, “Selectively substituted quinoline compounds” (EISAI R&D MANAGEMENT CO., LTD., priority 2013, dated 2019).
“And” between values parts separate entries of the source, which are not always exact repeats. Equal values may be shown once. Read-outs that look alike come from different tables or passages of the source.

Target: T1, TLR9 (Homo sapiens, UniProt Q9NR96)
T1 sequence (Q9NR96 26-1032): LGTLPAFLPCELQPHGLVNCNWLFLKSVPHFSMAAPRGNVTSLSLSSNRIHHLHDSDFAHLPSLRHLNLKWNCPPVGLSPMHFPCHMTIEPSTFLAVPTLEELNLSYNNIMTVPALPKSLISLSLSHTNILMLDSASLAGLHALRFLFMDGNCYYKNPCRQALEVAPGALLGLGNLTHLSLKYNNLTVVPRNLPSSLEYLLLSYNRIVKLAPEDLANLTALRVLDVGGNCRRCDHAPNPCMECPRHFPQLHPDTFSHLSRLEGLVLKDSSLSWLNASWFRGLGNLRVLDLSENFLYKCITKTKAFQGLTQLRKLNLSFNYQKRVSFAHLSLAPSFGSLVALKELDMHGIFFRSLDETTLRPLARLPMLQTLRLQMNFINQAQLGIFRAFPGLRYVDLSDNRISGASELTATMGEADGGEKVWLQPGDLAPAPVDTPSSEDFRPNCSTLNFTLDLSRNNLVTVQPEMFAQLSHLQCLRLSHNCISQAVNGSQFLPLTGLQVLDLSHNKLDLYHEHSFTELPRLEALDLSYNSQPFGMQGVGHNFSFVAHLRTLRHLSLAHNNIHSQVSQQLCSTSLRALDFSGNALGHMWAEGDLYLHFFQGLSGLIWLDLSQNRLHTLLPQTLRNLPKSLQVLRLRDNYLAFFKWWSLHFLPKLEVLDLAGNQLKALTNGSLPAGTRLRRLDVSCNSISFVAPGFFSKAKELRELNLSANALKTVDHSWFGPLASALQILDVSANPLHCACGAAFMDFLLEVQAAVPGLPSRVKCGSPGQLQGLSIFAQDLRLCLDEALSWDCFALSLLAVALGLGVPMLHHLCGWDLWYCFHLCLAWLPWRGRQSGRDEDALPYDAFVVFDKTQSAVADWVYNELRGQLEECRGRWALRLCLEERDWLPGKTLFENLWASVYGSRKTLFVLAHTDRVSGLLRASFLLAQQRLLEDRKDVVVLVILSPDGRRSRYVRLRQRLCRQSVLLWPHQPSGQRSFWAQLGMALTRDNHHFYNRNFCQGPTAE
Test: Subsequent human PBMC assay, DNA-mediated activation of TLR9, IL-6 and IFN-α
Type: cell-based
Description: Human PBMC Cell-Based Assay. Human peripheral blood mononuclear cells (PBMC) were isolated from freshly-drawn heparinized (10 USP units/ml, Hospira, Lakeforest, Ill.) healthy donor whole blood by density gradient (Histopaque® 1077, Sigma, Inc., St. Louis, Mo.). Briefly, 25 ml blood was diluted with 15 ml PBS (without Ca^2+, Mg^2+) in a 50 ml conical tube, and 12 ml Histopaque was underlaid using a spinal needle. Tubes were centrifuged for 45 minutes at 1200 rpm (350×g), and PBMC were collected from the buffy coat. Cells were then washed twice in PBS, and red blood cells were lysed by suspension in 5 ml ammonium chloride solution (1× Red Blood Cell Lysis Buffer, eBioscience) for 5 minutes at room temperature. After a final wash in PBS, PBMC were resuspended at a final concentration of 2×10^6/ml in RPMI-1640 media with L-glutamine (Invitrogen) and supplemented with 25 mM HEPES (Mediatech, Inc, Manassas Va.), 10% fetal bovine serum (HyClone, Logan, Utah), and Penicillin-Streptomycin-Glutamine (Mediatech) and plated at 100 ul/well (2×10^5 cells/well) in tissue culture treated 96-well plates (Falcon).
Antagonist compounds solubilized and serial diluted in 100% DMSO were added in triplicate to cells to yield a final concentration of 0.1% DMSO (v/v). Hydroxychloroquine (Acros Organics) solubilized and serial diluted in PBS was added in triplicate to cells. PBMC were incubated with antagonist compounds or HCQ for 30 minutes at 37° C., 5% CO2 before adding various TLR agonist reagents in 100 ul complete media per well as follows (final concentrations indicated): R848 (Resiquimod; GLSynthesis, Worcester, Mass.) at 1 uM for TLR7 and TLR8, LPS (Sigma) at 10 ng/ml for TLR4, and CpG-2216 (InvivoGen) at 5 ug/ml for TLR9. To prepare a TLR7/8 agonist that mimics RNA-containing auto-antibody immune complexes in lupus patients, a 26-mer RNA with a sequence derived from human U1 snRNA stem loop IV [(sequence: […]-[…] (SEQ ID NO: 2) with phosphorothioate backbone] was synthesized (Dharmacon, Inc., Lafayette, Colo.), which has been shown previously to be a potent TLR7 and TLR8 agonist. This RNA molecule was diluted to 2.5 μM in serum-free RPMI, and mouse anti-human single stranded DNA monoclonal antibody (MAB3034, Millipore, Inc., Billerica, Mass.), which also cross-reacts with RNA, was added at a 1:25 dilution or at 1 ug/ml. The resulting “RNA-Ig” stimulus was incubated at room temperature for 15-30 minutes before adding to cells. PBMC were incubated with the various TLR agonists for 20 hours at 37° C., 5% CO2. Cell culture supernatants were collected, and levels of various human cytokines were assessed as indicated by standard ELISA procedure according to the manufacturer's recommended protocol (BD Biosciences, Inc., San Diego, Calif.). In a subsequent assay (Table 6) the ability of ER-899742 to block stimulation of normal PBMC by various TLR7/8 ligands, but not DNA-mediated activation of TLR9, was examined. In this assay cells were plated at 1×10^5 cells/well in 100 ul in 96-well plates.

**Q.** C[C@@H]1CN(c2ccc(C#N)c3ncccc23)C[C@H](C(=O)N[C@H]2CNC[C@H]2F)O1.Cl [ER-899742, (2R,6R)-4-(8-cyanoquinolin-5-yl)-N-[(3S,4R)-4-fluoropyrrolidin-3-yl]-6-methylmorpholine-2-carboxamide hydrochloride] was tested. Which IC50 (IC50 IFN-α Ave., human PBMC, ligand ODN2006-DOTAP, average of donors) did it give?
**A.** Its IC50 is greater than 10000 nM.

**Q.** And the IC50 (IC50 IFN-α Ave., human PBMC, ligand ODN2216-Ig, average of donors)?
**A.** The IC50 was greater than 10000 nM.

**Q.** And the IC50 (IC50 IFN-α, human PBMC, ligand ODN2006-DOTAP, individual donors)?
**A.** Its IC50 is greater than 10000 nM.

**Q.** And the IC50 (IC50 IFN-α, human PBMC, ligand ODN2216-Ig, individual donors)?
**A.** The IC50 was greater than 10000 nM.

**Q.** What about the IC50 (IC50 IL-6, human PBMC, ligand ODN2006-DOTAP, individual donors) of the same molecule?
**A.** The IC50 was greater than 10000 nM.

**Q.** And the IC50 (IC50 IL-6, human PBMC, ligand ODN2216-Ig, individual donors)?
**A.** Its IC50 is greater than 10000 nM.

**Q.** And the IC50 (IC50 IL-6 Ave., human PBMC, ligand ODN2006-DOTAP, average of donors)?
**A.** The IC50 was greater than 10000 nM.

**Q.** And the IC50 (IC50 IL-6 Ave., human PBMC, ligand ODN2216-Ig, average of donors)?
**A.** Its IC50 is greater than 10000 nM.

**Q.** Which IC50 (human PBMC, ligand ODN2006-DOTAP, average of donors, read-out: IC50 IFN-α Ave.) does the source give for CCN(CCO)CCCC(C)Nc1ccnc2cc(Cl)ccc12 (stereo not drawn) [HCQ, hydroxychloroquine, reference compound] here?
**A.** The IC50 was 3020 nM.

**Q.** What about the IC50 (human PBMC, ligand ODN2006-DOTAP, average of donors, read-out: IC50 IL-6 Ave.) of the same molecule?
**A.** The IC50 was 1720 nM.

**Q.** What about the IC50 (human PBMC, ligand ODN2006-DOTAP, individual donors, read-out: IC50 IFN-α) of the same molecule?
**A.** Its IC50 is 910 nM and 4100 nM and 3100 nM and 3960 nM.

**Q.** And the IC50 (human PBMC, ligand ODN2006-DOTAP, individual donors, read-out: IC50 IL-6)?
**A.** The IC50 was 1200 nM and 1240 nM and 1540 nM and 2400 nM and 1580 nM and 2370 nM.

**Q.** What about the IC50 (human PBMC, ligand ODN2216-Ig, average of donors, read-out: IC50 IFN-α Ave.) of the same molecule?
**A.** Its IC50 is 290 nM.

**Q.** What about the IC50 (human PBMC, ligand ODN2216-Ig, average of donors, read-out: IC50 IL-6 Ave.) of the same molecule?
**A.** The IC50 was 2380 nM.

**Q.** And the IC50 (human PBMC, ligand ODN2216-Ig, individual donors, read-out: IC50 IFN-α)?
**A.** Its IC50 is 280 nM and 290 nM.
